Source: patent US9415031B2, “D-serine transporter inhibitors as pharmaceutical compositions for the treatment of visual system disorders” (Allergan, Inc., priority 2011, dated 2016)
“Also recorded” adds a separate entry of the source.

Assays:
normal rats = assay: sweep VEP visual acuity in normal rats; type: in vivo, rat; details: 0.03-1.6 cpd, vs saline
Source text: Sweep visually evoked potential (sweep VEP, sVEP), which was first introduced by Regan in 1973, has become an important technique to measure visual function. It is an objective method that can be used to assess visual acuity (VA) and contrast sensitivity (CS) in infants, young children and people with special needs. It was adapted to measure VA and CS in animals.
(§1) The recording electrodes were permanently implanted into the right visual cortex of Long Evans rats at lambda and 4.5 mm lateral to the midline, to a depth of 800 microns (layer III/iV). A reference electrode was placed epidurally on the midline 1.2 mm anterior to bregma. All recordings were conducted in awake rats starting at least two weeks after recovery from surgery. During recording the rats were alert and restrained in a home-made restrainer. They were habituated 2-3 times pre-surgery and at least three more times during seven days post-surgery. PowerDiva software from Anthony Norcia (Smith Kettlewell Institute of Visual Sciences) was used for data acquisition and analysis. Similar recording was performed in rabbits (FIG. 11) except the screw electrodes were place on top of the skull.
(§2) Stimuli were presented on a CRT computer monitor and consist of full-field sine-wave gratings at 80% contrast, reversing at 6.25 Hz. VEPs were elicited by horizontally oriented gratings. The display was positioned 24 cm in front of the rat and centered at the vertical meridian. Mean luminance was held constant at 20 cd. For sVEP in normal rats (slides 76-79), one stimulus presentation (one trial) consists of a spatial frequency sweep decreasing from 1.6 to 0.03 cycles/degree in 15 linear steps. A total of 20 trials were collected. Visual acuity (VA) thresholds were estimated using PowerDiva software. For fixed frequency stimulus in optic nerve crushed (ONC) rats (slides 80-83), the spatial frequency was fixed at 0.2 or 0.5 cycles/degree. Each trial lasts for 15 s. A total of 5 trials were collected and the signal powers were calculated.

[1] = test system: rats after blue-light treatment; assay: contrast sensitivity (sweep VEP) in blue-light treated rats; type: in vivo, rat
Method: as §1
One stimulus presentation (one trial) consists of a contrast sweep increasing from 2.5 to 70% in 15 log steps. A total of 20 to 30 trials were collected. Contrast thresholds (CT) were estimated using PowerDiva software. Contrast sensitivity (CS) is calculated as 1/CT.
Blue-light treatment damages photoreceptors in the retina, and has been proposed as a model of age related macular degeneration (ARMD; Wielgus et al., 2010).

normal rabbits = assay: sweep VEP in normal rabbits; type: in vivo, rabbit; details: 30 mg/kg, 0.03-1.6 cpd, vs saline
Method: as §1
as §2, with “Visual acuity (VA) thresholds were estimated using PowerDiva software. For fixed frequency stimulus in optic nerve crushed (ONC) rats (slides 80-83), the spatial frequency was fixed at 0.2 or 0.5 cycles/degree. Each trial lasts for 15 s.” left out

ONC rat = assay: fixed-frequency VEP in optic nerve crush (ONC) rats; type: in vivo; details: 30 mg/kg, spatial frequency fixed at 0.2 cpd, vs saline
Method: as §1
as §2, with “Visual acuity (VA) thresholds were estimated using PowerDiva software. For fixed frequency stimulus in optic nerve crushed (ONC) rats (slides 80-83), the spatial frequency was fixed at 0.2 or 0.5 cycles/degree. Each trial lasts for 15 s.” left out

[2] = test system: NMDA receptor-mediated excitatory postsynaptic currents (EPSCNMDA); assay: electrophysiological recording of NMDA receptor-mediated EPSCs from rat hippocampal slices; type: cell-based
Method: […] thick hippocampal slices were prepared from […] rats using Leica VT1000S-microtome. Slices were perfused with ACSF containing: 121 mM NaCl, 2.5 mM KCl, 2.0 mM Mg2SO4, 2.0 CaCl2, 1 mM NaH2PO4, 26.2 NaHCO3, and 11 mM glucose, which was equilibrated with 5% CO2/95% O2. Experiments were performed in a recording chamber on the stage of an Olympus BX-61wi microscope with infrared DIC optics for visualizing whole-cell patch-clamp recordings. EPSPs were recorded from CA1 pyramidal neurons by stimulating the Schaffer collateral-commissural pathway using a bipolar tungsten electrode. The recording pipettes were filled with regular ICM containing: 120 mM Cs-gluconate, 5 mM NaCl, 10 mM KCl, 0.1 mM CaCl2, 1 mM EGTA, 2 mM MgCl2, 10 mM HEPES, 2 mM Na-ATP, 2 mM Na2-phosphocreatine, and 0.25 mM Na-GTP, pH 7.3 (290 mOsm).
To measure NMDA-mediated EPSCs, extracellular Mg2SO4 was lowered to 0.2 mM and 2 μM NBQX and 100 μM picrotoxin were added in the ACSF. 1 μM 7-CKY (7-chlorokynurenic acid) was added to improve the sensitivity of […] to D-serine.

[3] = test system: long-term potentiation (LTP) in the primary visual cortex; assay: long-term potentiation (LTP) in primary visual cortex slices; type: cell-based; details: rat visual cortex slice
Method: Long Term Potentiation (LTP) in primary visual cortex has been used as a cellular model for visual cortex plasticity and has functional consequences on visual evoked responses. NMDA receptors play a critical role in visual cortex LTP induction.
Following decapitation of the rat, the brain was rapidly removed and immersed in ice-cold artificial cerebrospinal fluid (ACSF) containing 124 mM NaCl, 3 mM KCl, 1.25 mM KH2PO4, 3.4 mM CaCl2, 2.5 mM MgSO4, 26 mM NaHCO3, and 10 mM D-glucose. A block of visual cortex was created by removing the frontal ⅔ portion of the brain and the cerebellum. Coronal visual cortex slices of 375 μm were prepared from adult Sprague Dawley (SD) rats using a vibratome (VT 1000 S; Leica). The slices were maintained in an interface recording chamber perfused with preheated ACSF. Slices were continuously perfused with this solution at a rate of 1.00-1.50 ml/min while the surface of the slices was exposed to warm, humidified 95% O2/5% CO2 and maintained at 31±1° C. Visual cortex slices were allowed to recover for 1 hr before recording began. […] This was repeated 2 additional times with a 1 minute intertrain interval, and the level of LTP was recorded for at least 30 min. Changes in amplitude of the synaptic response were used to measure the extent of LTP because it was determined to be the more consistent parameter than the slope of the response. […]

ASCT2 = details: literature range; cited from earlier work
[4] = test system: rat hippocampal astrocytes; assay: [3H]D-serine transport into primary cultures of rat hippocampal astrocytes; type: cell-based; details: two-component inhibition curves, FIG. 4
Method: (§3) Cell-based assays: the transport of [^3H]L- or D-serine was measured in primary cultures of rat hippocampal astrocytes or in human embryonic kidney (HEK) cells expressing ASCT transporter sub-types. For the astrocyte assays, cells were plated on either 24- or 96-well plates at a density of 50,000 cells per well. For the HEK assays, cells were plated on coated 96-well plates at a density of 80,000 cells/well. Assays were conducted in duplicate at room temperature in assay buffer consisting of: NaCl: 150 mM, KCl: 2 mM; MgCl2: 1 mM; CaCl2: 1 mM; HEPES: Tris buffer: 10 mM, pH7.4. To assess the sodium-dependence of transport, NaCl was replaced in the assay buffer by equimolar choline chloride. Following aspiration of growth medium and 2 washes with assay buffer, cells were incubated with [^3H]L- or D-serine at a final concentration of 1 μM for 5 min (astrocytes) or 1 min (HEK cells), after which the incubation medium was aspirated and the cells washed twice with ice-cold assay buffer. Cells containing radiolabel were solubilized in 100 μl of 1% Triton-X100 and an aliquot counted in a beta counter. IC50 values were determined over a range of at least 6 concentrations and derived from curve-fitting algorithms available in Graph Pad Prism 4.

human ASCT2 = target: T1, human ASCT2 (Homo sapiens, UniProt Q15758); assay: transport into HEK cells expressing ASCT2; type: cell-based; details: inhibition of [3H]L-serine transport, HEK cells expressing ASCT1 vs ASCT2
T1 construct: expressed in transfected cells; host or cells: HEK (human embryonic kidney) cells
T1 sequence (Q15758 1-541): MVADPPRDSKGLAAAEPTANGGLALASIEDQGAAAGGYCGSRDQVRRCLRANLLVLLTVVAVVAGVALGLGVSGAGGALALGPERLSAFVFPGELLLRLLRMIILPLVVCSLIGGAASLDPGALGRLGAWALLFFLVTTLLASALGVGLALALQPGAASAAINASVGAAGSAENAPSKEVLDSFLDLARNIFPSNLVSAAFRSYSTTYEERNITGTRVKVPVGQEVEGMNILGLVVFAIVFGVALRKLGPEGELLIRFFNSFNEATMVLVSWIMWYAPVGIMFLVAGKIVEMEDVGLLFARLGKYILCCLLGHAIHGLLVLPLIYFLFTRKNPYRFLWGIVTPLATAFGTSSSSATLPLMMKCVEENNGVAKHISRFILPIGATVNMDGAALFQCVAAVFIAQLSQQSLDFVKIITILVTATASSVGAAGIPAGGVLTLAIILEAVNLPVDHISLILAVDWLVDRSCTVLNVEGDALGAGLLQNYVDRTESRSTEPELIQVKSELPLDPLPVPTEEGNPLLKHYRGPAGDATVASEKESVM
Method: as §3

ASCT1 [5] = target: T2, ASCT1 (Homo sapiens, UniProt P43007); assay: transport into HEK cells expressing ASCT1; type: cell-based; parameters: expressed in transfected cells; host or cells: HEK (human embryonic kidney) cells; details: inhibition of [3H]L-serine transport, HEK cells expressing ASCT1 vs ASCT2
T2 sequence (P43007 1-532): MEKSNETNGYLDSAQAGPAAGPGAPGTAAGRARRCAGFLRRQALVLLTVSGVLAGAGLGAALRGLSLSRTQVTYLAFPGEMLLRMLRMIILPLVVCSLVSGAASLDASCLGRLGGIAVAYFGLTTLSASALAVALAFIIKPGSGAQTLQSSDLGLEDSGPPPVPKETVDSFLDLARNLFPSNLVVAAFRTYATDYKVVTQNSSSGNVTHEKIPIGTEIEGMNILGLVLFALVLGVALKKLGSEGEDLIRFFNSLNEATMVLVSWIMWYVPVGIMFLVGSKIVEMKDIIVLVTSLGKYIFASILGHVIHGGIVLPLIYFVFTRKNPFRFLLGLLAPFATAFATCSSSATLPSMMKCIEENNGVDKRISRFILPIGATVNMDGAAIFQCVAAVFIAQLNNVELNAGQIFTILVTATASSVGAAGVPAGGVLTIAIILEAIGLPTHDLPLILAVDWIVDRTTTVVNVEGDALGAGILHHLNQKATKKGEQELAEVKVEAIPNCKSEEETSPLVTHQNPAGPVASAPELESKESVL
Method: as §3

ASCT1 [6] = target: T2, ASCT1; details: one literature report; cited from earlier work

N[C@H](C(=O)O)c1ccc(F)cc1 [L-4FPG, L-4-fluorophenylglycine]
visual function (visual acuity) assessed by sweep VEP (normal rats; 10 mg/kg, 40 min after injection, 10 mg/kg): enhance visual function
visual function (visual acuity) assessed by sweep VEP (normal rats; 10 mg/kg, 40 min after injection, listed as L-FPG, 10 mg/kg): enhances visual function
contrast sensitivity ([1]; rats fifty-three weeks after blue-light treatment, 10 mg/kg, 0.575 cpd, vs saline): improved the contrast sensitivity

N[C@H](C(=O)O)c1ccc(O)cc1 [L-4OHPG, L-4-hydroxyphenylglycine]
visual function assessed by sweep VEP (normal rabbits): enhances visual function; also recorded: enhanced sweep VEP
visual function (visual acuity) assessed by sweep VEP (normal rats; 30 mg/kg, 30 min after injection, 30 mg/kg): enhance visual function
visually-evoked signals (power of signals) from the visual cortex (ONC rat): visual enhancement effect; also recorded: enhances visually-evoked signals
percentage increase in the amplitude of EPSCNMDA ([2]; 1000 μM, in presence of 1 μM 7-CKY, representative experiment): 22%
duration of the potentiation effect on EPSCNMDA ([2]; 1000 μM, then control buffer): lasted for one hour
effect on NMDA receptor-mediated EPSCs ([2]; CA1 region of the hippocampus): dose-dependent effects; also recorded: potentiated
contrast sensitivity ([1]; rats with damaged retinas following blue-light treatment, FIG. 12 as described in text): significant improvement in contrast sensitivity
effect on LTP evoked by theta burst stimulation [3]: dose-dependently facilitates; also recorded: enhanced LTP in a concentration-dependent manner
effect on LTP with D-amino acid oxidase (D-AAO) in the perfusion medium ([3]; D-AAO): dependent on extracellular D-serine; also recorded: completely prevented

NC(=O)CC[C@H](N)C(=O)O [L-glutamine]
reported affinity for ASCT2 (ASCT2): 23 to 70 µM
proportion of D-serine transport represented by the component for which the compound showed higher affinity [4]: approximately 40%
selectivity towards ASCT2 (human ASCT2): selectivity towards ASCT2; also recorded: selective for ASCT2

O=C(O)[C@@H]1C[C@@H](O)CN1 [L-t-4OHPro, L-trans-4-hydroxyproline]
selectivity towards ASCT1 (ASCT1 [5]): selectivity towards ASCT1
selectivity towards ASCT1 (ASCT1 [5]; listed as L-trans-4OHPro): selective for ASCT1
proportion of D-serine transport represented by the component for which the compound showed higher affinity [4]: approximately 60%
reported affinity for ASCT1 (ASCT1 [6]): high affinity
